Earlier results as cited in patent publication US20070077261A1 (priority 2005, published 2007).

Details: amount dissolving in 2 ml of glycerin; The Merck Index, 11th Edition

solubility of urea in glycerin: 1 gram
SMILES: NC(N)=O [urea]
